From ChEMBL document CHEMBL1127727, “Synthesis and structure-activity relationships of novel retinoid X receptor-selective retinoids” (J Med Chem, 1994) come the findings set out here.

The target in experiment [1] is T1, Retinoic acid receptor RXR-gamma (Mus musculus, UniProt P28705).
T1 sequence (P28705 whole entry): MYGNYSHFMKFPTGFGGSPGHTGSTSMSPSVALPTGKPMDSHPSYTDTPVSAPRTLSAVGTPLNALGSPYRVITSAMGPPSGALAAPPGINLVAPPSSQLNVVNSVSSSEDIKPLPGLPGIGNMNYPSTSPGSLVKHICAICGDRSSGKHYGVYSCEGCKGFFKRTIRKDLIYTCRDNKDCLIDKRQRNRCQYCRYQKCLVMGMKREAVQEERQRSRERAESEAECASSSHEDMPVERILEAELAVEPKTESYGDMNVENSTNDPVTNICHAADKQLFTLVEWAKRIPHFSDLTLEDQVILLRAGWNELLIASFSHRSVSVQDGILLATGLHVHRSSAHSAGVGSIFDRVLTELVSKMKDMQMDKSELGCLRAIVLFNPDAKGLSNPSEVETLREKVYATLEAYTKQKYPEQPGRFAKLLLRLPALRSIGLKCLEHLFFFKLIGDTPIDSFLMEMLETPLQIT
The experiment can be described thus: Inhibition of [3H]9-cis-RA binding to baculovirus expressed retinoid receptor RXR gamma.

The target in experiment [2] is T2, Retinoic acid receptor beta (Homo sapiens, UniProt P10826).
T2 sequence (P10826 whole entry): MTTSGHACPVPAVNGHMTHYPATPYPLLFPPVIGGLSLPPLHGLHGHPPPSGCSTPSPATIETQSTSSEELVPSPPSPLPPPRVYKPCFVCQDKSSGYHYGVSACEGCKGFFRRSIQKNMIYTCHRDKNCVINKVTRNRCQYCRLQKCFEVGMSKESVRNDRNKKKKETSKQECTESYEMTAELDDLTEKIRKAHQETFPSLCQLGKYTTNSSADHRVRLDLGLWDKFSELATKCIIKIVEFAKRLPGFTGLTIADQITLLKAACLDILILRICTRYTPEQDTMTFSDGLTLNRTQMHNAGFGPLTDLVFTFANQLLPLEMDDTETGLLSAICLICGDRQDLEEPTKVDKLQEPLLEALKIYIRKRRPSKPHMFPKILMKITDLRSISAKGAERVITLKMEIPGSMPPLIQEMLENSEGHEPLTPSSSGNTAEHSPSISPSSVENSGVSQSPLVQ
The experiment can be described thus: Inhibition of [3H]ATRA binding to baculovirus expressed retinoid receptor RAR beta.

The target in experiment [3] is T3, Retinoic acid receptor RXR-alpha (Homo sapiens, UniProt P19793).
T3 sequence (P19793 whole entry): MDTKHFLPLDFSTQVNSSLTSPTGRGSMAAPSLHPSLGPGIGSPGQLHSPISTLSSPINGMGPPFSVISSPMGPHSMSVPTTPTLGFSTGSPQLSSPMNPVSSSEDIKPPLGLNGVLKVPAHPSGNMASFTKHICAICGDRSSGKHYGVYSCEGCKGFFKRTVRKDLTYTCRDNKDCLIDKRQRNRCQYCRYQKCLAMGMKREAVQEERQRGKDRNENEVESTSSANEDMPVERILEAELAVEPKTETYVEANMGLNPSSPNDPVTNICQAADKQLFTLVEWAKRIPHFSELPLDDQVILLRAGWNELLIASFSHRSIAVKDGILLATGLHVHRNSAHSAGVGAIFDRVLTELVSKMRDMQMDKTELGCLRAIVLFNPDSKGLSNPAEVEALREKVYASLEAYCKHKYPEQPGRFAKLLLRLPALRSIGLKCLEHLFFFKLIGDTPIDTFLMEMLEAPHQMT
Description: Inhibition of [3H]9-cis-RA binding to baculovirus expressed retinoid receptor RXR alpha

For experiment [4], the target named is T1, Retinoic acid receptor RXR-gamma. The experiment can be described thus: Effective concentration against retinoid receptor isoform (RXR gamma) expressed in CV-1 cells. The format is cell-based.
The target of experiment [5] is T3, Retinoic acid receptor RXR-alpha. The source holds these as a separate data set.
Description: Effective concentration against retinoid receptor isoform (RXR alpha) expressed in CV-1 cells
Experiment [6] has as its target T4, Retinoic acid receptor RXR-beta (Mus musculus, UniProt P28704).
T4 sequence (P28704 whole entry): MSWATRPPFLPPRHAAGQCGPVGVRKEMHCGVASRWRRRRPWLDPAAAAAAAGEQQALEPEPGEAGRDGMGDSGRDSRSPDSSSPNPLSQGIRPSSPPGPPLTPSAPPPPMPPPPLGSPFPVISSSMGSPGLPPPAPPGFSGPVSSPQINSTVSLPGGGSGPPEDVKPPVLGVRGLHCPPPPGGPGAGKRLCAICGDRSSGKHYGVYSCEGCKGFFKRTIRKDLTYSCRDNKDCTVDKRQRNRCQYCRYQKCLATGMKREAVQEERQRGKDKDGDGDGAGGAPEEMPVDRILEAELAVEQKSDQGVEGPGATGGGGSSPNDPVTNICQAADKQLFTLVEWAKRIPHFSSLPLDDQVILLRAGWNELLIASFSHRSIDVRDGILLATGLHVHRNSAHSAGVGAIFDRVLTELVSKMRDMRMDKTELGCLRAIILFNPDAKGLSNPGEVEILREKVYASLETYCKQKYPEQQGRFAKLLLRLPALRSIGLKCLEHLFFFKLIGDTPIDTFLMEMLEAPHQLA
Nature of the experiment: Effective concentration against retinoid receptor isoform (RXR beta) expressed in CV-1 cells. The format is cell-based.

In experiment [7] the target is T5, Retinoic acid receptor gamma (Homo sapiens, UniProt P13631).
T5 sequence (P13631 whole entry): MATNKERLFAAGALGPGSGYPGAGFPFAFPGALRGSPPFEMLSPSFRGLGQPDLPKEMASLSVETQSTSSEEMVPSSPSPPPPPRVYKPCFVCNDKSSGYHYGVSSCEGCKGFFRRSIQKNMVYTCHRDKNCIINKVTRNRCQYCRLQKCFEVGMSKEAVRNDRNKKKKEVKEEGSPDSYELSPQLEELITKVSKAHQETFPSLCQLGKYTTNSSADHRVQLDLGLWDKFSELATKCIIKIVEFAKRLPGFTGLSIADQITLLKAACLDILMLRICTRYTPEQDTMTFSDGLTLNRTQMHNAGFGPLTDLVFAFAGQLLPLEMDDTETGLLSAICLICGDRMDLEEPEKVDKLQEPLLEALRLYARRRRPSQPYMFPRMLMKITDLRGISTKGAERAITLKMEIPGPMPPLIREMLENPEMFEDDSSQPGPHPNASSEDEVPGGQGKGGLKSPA
The experiment can be described thus: Effective concentration against retinoid receptor isoform (RAR gamma) expressed in CV-1 cells. The experiment is classed as cell-based.

Experiment [8] concerns the target T6, Retinoic acid receptor alpha (Homo sapiens, UniProt P10276).
T6 sequence (P10276 whole entry): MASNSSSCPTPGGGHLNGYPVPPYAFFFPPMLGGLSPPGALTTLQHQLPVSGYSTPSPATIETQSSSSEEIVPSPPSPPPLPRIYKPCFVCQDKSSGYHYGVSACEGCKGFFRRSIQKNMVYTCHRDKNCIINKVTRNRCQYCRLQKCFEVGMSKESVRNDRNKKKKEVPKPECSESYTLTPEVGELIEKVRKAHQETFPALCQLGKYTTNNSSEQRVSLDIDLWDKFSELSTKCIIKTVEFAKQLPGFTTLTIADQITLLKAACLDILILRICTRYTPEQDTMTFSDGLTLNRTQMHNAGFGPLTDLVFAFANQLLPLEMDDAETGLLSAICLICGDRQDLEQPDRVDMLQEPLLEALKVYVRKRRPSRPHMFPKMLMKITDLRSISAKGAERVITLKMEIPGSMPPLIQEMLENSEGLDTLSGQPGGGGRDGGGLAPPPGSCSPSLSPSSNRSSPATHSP
Nature of the experiment: Inhibition of [3H]-ATRA binding to baculovirus expressed retinoid receptor RAR alpha.

For experiment [9], the target named is T4, Retinoic acid receptor RXR-beta. Nature of the experiment: Inhibition of [3H]9-cis-RA binding to baculovirus expressed retinoid receptor RXR beta.
The target of experiment [10] is T2, Retinoic acid receptor beta. The experiment can be described thus: Effective concentration against retinoid receptor isoform (RAR beta) expressed in CV-1 cells. The format is cell-based.
Experiment [11] deals with T6, Retinoic acid receptor alpha. The experiment can be described thus: Effective concentration against retinoid receptor isoform (RAR alpha) expressed in CV-1 cells. The experiment is classed as cell-based.
Experiment [12] has as its target T5, Retinoic acid receptor gamma. Nature of the experiment: Tested for binding affinity against [3H]-ATRA binding to retinoid receptor isoform (RAR gamma) expressed in baculovirus.
Experiment [13] has as its target T6, Retinoic acid receptor alpha. The experiment can be described thus: Inhibition of [3H]ATRA binding to baculovirus expressed retinoid receptor RAR alpha.

A value given as a limit tells only on which side of the number the result lay.

For `C=C(c1ccc(C(=O)O)cc1)c1cc2c(cc1CC)C(C)(C)CCC2(C)C`, the Kd – broadly, the equilibrium constant for the complex coming apart – in [1] is 59 nM; in experiment [2], above 1000 nM; in [3], 31 nM; in experiment [8], above 1000 nM; in experiment [9], 44 nM; in [12], above 1000 nM. The EC50 (as a rule, the midpoint of the concentration-response curve) was 136 nM in experiment [4]; 115 nM in experiment [5]; 145 nM in experiment [6]; above 10000 nM in [7]; above 10000 nM in experiment [10]; above 10000 nM in experiment [11].

`CC1(C)CCC(C)(C)c2cc(C(=O)c3ccc(C(=O)O)cc3)c(O)cc21`: the Kd in experiment [1] is above 1000 nM; in experiment [2] it was above 1000 nM; in [3], 818 nM; in [8] it was above 1000 nM; in experiment [9] it was above 1000 nM; in [12], above 1000 nM. The EC50 in experiment [4], in experiment [5], in experiment [6], in experiment [7], in [10] and in experiment [11] was above 10000 nM in each case.

In the case of `C=C(c1ccc(C(=O)O)cc1)c1cc2c(cc1OC)C(C)(C)CCC2(C)C`, the Kd is 113 nM in [1]; above 1000 nM in experiment [2]; 96 nM in experiment [3]; above 1000 nM in experiment [13]; 191 nM in experiment [9]; above 1000 nM in experiment [12]. In addition, the EC50 in [4] was 230 nM; in experiment [5], 83 nM; in experiment [6] it was 198 nM; in [7], above 10000 nM; in [10], above 10000 nM; in experiment [11], above 10000 nM.

As for `C=C(c1ccc(C(=O)O)cc1)c1cc2c(cc1Cl)C(C)(C)CCC2(C)C`, the Kd is 44 nM in experiment [1]; above 1000 nM in [2]; 27 nM in [3]; above 1000 nM in experiment [8]; 44 nM in [9]; above 1000 nM in experiment [12]. Moreover, the EC50 is 36 nM in experiment [4]; 52 nM in experiment [5]; 33 nM in experiment [6]; 1450 nM in experiment [7]; 436 nM in experiment [10]; above 10000 nM in experiment [11].

As to `C=C(c1ccc(C(=O)O)cc1)c1cc2c(cc1Br)C(C)(C)CCC2(C)C`, the Kd was 35 nM in experiment [1]; above 1000 nM in experiment [2]; 28 nM in [3]; above 1000 nM in experiment [8]; 34 nM in [9]; above 1000 nM in experiment [12]. For the same compound, the EC50 in [4] was 43 nM; in experiment [5], 51 nM; in [6], 59 nM; in [7], above 10000 nM; in [10], above 10000 nM; in [11], above 10000 nM.

Take `C=C(c1ccc(C(=O)O)cc1)c1cc2c(cc1O)C(C)(C)CCC2(C)C`: the Kd in [1] was 812 nM; in experiment [2], above 1000 nM; in [3], 487 nM; in experiment [8] it was above 1000 nM; in [9], 822 nM; in [12] it was above 1000 nM. Besides, the EC50 is 558 nM in experiment [4]; 455 nM in [5]; 202 nM in experiment [6]; above 10000 nM in [7]; 2240 nM in experiment [10]; above 10000 nM in experiment [11].

Turning to `C=C(c1ccc(C(=O)O)cc1)c1cc2c(cc1F)C(C)(C)CCC2(C)C`, the Kd in experiment [1] is 94 nM; in experiment [2], above 1000 nM; in [3] it was 69 nM; in experiment [8], above 1000 nM; in [9], 108 nM; in [12], above 1000 nM. In addition, the EC50 was 383 nM in experiment [4]; 197 nM in experiment [5]; 189 nM in experiment [6]; 397 nM in [7]; 337 nM in experiment [10]; above 10000 nM in [11].
